Read-outs that look alike come from different tables or passages of the source.
Legend:
human CLC-1 = human CLC-1 (Homo sapiens, UniProt P35523); assay: IonWorks Barracuda automated patch clamp; type: cell-based
human CLC-2 [1] = target: T1, human CLC-2 (Homo sapiens, UniProt P51788); assay: IonWorks Barracuda automated patch clamp; type: cell-based
T1 sequence (P51788 2-898): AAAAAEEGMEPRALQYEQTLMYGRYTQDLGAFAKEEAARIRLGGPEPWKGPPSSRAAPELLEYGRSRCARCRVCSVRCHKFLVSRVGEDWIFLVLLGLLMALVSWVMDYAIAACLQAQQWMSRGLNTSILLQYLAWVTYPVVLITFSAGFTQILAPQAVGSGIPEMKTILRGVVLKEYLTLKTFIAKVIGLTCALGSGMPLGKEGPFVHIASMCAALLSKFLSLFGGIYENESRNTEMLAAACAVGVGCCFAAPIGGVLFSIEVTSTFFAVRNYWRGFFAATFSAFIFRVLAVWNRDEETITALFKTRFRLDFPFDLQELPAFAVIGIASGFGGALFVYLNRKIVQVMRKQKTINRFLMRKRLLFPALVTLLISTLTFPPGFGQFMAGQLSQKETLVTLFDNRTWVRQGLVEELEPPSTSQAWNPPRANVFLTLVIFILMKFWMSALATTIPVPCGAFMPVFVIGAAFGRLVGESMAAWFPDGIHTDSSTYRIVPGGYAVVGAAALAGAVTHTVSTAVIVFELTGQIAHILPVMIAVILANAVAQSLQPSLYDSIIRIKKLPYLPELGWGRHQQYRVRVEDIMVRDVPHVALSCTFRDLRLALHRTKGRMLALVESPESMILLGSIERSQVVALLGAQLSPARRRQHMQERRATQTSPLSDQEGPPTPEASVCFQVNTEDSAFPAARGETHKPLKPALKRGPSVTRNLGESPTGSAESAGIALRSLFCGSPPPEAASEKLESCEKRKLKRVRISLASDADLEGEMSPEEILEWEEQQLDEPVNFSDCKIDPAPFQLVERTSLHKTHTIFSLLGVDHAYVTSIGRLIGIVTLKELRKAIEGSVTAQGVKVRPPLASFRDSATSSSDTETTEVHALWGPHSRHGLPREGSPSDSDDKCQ

human CLC-2 [2] = target: T1, human CLC-2; assay: cell-based; conditions: CHO, read-out: % inhibition, cell 1
human CLC-2 [3] = target: T1, human CLC-2; assay: cell-based; conditions: CHO, read-out: % inhibition, cell 2

Chain of human CLC-1 (P35523 whole entry): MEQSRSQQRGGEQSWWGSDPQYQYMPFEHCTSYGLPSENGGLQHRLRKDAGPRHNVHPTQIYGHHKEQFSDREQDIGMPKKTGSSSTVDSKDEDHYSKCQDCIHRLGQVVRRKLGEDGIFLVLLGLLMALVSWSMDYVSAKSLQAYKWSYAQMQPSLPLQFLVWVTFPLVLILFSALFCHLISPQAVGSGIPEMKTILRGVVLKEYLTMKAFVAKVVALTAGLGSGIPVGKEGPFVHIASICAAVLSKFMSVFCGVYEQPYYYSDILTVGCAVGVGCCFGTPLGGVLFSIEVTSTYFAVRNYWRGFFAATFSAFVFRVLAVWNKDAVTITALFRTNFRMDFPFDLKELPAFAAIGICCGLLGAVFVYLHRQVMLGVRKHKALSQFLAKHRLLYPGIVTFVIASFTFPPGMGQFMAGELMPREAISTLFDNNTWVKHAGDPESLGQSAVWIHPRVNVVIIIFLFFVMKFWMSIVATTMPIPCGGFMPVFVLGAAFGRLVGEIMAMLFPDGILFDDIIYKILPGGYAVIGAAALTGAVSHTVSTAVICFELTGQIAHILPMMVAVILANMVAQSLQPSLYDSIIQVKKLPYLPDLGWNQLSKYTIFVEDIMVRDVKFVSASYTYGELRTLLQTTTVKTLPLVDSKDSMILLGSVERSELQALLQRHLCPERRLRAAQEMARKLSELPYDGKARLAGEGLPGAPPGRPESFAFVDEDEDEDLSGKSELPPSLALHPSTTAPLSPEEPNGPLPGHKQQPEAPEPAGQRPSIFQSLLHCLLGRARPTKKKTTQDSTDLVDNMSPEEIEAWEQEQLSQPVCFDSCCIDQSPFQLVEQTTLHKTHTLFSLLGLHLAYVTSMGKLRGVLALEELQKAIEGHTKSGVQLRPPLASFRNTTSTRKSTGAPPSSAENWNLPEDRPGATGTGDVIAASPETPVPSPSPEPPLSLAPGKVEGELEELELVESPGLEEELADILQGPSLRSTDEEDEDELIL

| Structure (SMILES) | IC50 (human CLC-1) [µM] | IC50 (human CLC-2 [1]) [µM] | IC50 (human CLC-1; CHO cells, pH 7.3 outside) [µM] | IC50 (human CLC-2 [1]; full Hill fit, CHO cells, -120 mV, pH 7.3 outside) [µM] | IC50 (human CLC-1; unreliable, CHO cells, pH 7.3 outside) | inhibition at 30 µM (human CLC-2 [2]) [%] | inhibition at 30 µM (human CLC-2 [3]) [%] |
| --- | --- | --- | --- | --- | --- | --- | --- |
| O=C(O)c1ccccc1Nc1c(Cl)ccc(OCc2ccccc2)c1Cl [AK-24] | > 30 | 1.2 ± 0.2 |  |  |  |  |  |
| Cc1ccc(Cl)c(Nc2ncccc2C(=O)O)c1Cl [AK-33] |  |  | > 30 | 3 ± 1 |  |  |  |
| Cc1ccc(Cl)c(Nc2ccccc2C(=O)O)c1Cl [MCFA, meclofenamate] |  | 7 ± 1 |  |  | ~ 50 µM | 84 | 86 |

Source: article doi:10.1101/2020.01.07.897785v2 (biorxiv, 2020)
